From US12077503B2, “Substituted cyclic amides and their use as herbicides” (FMC CORPORATION, priority 2015, dated 2024)

Legend:
Format in all cases: in vivo
[1] = tested on: redroot pigweed (Amaranthus retroflexus); experiment: Test G Post-Emergence Protocol; details: Amaranthus retroflexus, post-emergence, 312 h; for pest or weed control at 15.625 g/ha: 15.625 g ai/ha, evaluated after 13 days (100=total damage to plant; 0=no damage to plant), read-out: Pigweed, Redroot damage rating; for pest or weed control at 62.5 g/ha: 62.5 g ai/ha, read-out: Pigweed, Redroot damage rating (100=total damage to plant; 0=no damage to plant); for pest or weed control at 62.5 g/ha / pest or weed control at 250 g/ha: evaluated after 13 days; for pest or weed control at 250 g/ha: 250 g ai/ha, read-out: damage to plant, Pigweed, Redroot (100=total damage to plant; 0=no damage to plant)
Method in brief: (§1)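 Scores run 0 (no damage) to 100 (total damage) and were taken 13 days after spraying. Plants had been raised in pots for 8 days under glasshouse control (24/16 °C, 14 h photoperiod, 65% humidity) and then treated at 15.625, 62.5 or 250 g/ha.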

[2] = tested on: barnyardgrass (Echinochloa crus-galli); experiment: Test G Post-Emergence Protocol; details: Echinochloa crus-galli, post-emergence, 312 h; for pest or weed control at 15.625 g/ha: 15.625 g ai/ha, evaluated after 13 days (100=total damage to plant; 0=no damage to plant), read-out: Barnyardgrass damage rating; for pest or weed control at 62.5 g/ha: 62.5 g ai/ha, read-out: Barnyardgrass damage rating (100=total damage to plant; 0=no damage to plant); for pest or weed control at 62.5 g/ha / pest or weed control at 250 g/ha: evaluated after 13 days; for pest or weed control at 250 g/ha: 250 g ai/ha, read-out: damage to plant, Barnyardgrass (100=total damage to plant; 0=no damage to plant)
Method in brief: as §1

[3] = tested on: ivy-leaved morning glory (Ipomoea hederacea); experiment: Test G Post-Emergence Protocol; details: Ipomoea, post-emergence, 312 h; for pest or weed control at 15.625 g/ha: 15.625 g ai/ha, evaluated after 13 days (100=total damage to plant; 0=no damage to plant), read-out: Morningglory, Ivy-leaved damage rating; for pest or weed control at 62.5 g/ha: 62.5 g ai/ha, read-out: Morningglory, Ivy-leaved damage rating (100=total damage to plant; 0=no damage to plant); for pest or weed control at 62.5 g/ha / pest or weed control at 250 g/ha: evaluated after 13 days; for pest or weed control at 250 g/ha: 250 g ai/ha, read-out: damage to plant, Morningglory, Ivy-leaved (100=total damage to plant; 0=no damage to plant)
Method in brief: as §1

[4] = tested on: giant foxtail (Setaria faberi); experiment: Test G Post-Emergence Protocol; details: Setaria faberi, post-emergence, 312 h; for pest or weed control at 15.625 g/ha: 15.625 g ai/ha, evaluated after 13 days (100=total damage to plant; 0=no damage to plant), read-out: Foxtail, Giant damage rating; for pest or weed control at 62.5 g/ha: 62.5 g ai/ha, read-out: Foxtail, Giant damage rating (100=total damage to plant; 0=no damage to plant); for pest or weed control at 62.5 g/ha / pest or weed control at 250 g/ha: evaluated after 13 days; for pest or weed control at 250 g/ha: 250 g ai/ha, read-out: damage to plant, Foxtail, Giant (100=total damage to plant; 0=no damage to plant)
Method in brief: as §1

[5] = tested on: corn (Zea mays); experiment: Test G Post-Emergence Protocol; details: Zea mays, post-emergence, 312 h; for plant injury at 15.625 g/ha: 15.625 g ai/ha, evaluated after 13 days (100=total damage to plant; 0=no damage to plant), read-out: Corn damage rating; for plant injury at 62.5 g/ha: 62.5 g ai/ha, read-out: Corn damage rating (100=total damage to plant; 0=no damage to plant); for plant injury at 62.5 g/ha / plant injury at 250 g/ha: evaluated after 13 days; for plant injury at 250 g/ha: 250 g ai/ha, read-out: damage to plant, Corn (100=total damage to plant; 0=no damage to plant)
Method in brief: as §1

[6] = tested on: velvetleaf (Abutilon theophrasti); experiment: Test G Post-Emergence Protocol; details: Abutilon theophrasti, post-emergence, 312 h; for pest or weed control at 15.625 g/ha: 15.625 g ai/ha, evaluated after 13 days (100=total damage to plant; 0=no damage to plant), read-out: Velvetleaf damage rating; for pest or weed control at 62.5 g/ha: 62.5 g ai/ha, read-out: Velvetleaf damage rating (100=total damage to plant; 0=no damage to plant); for pest or weed control at 62.5 g/ha / pest or weed control at 250 g/ha: evaluated after 13 days; for pest or weed control at 250 g/ha: 250 g ai/ha, read-out: damage to plant, Velvetleaf (100=total damage to plant; 0=no damage to plant)
Method in brief: as §1

[7] = tested on: redroot pigweed (Amaranthus retroflexus); experiment: Test G Pre-Emergence Protocol; details: Amaranthus retroflexus, pre-emergence, 312 h, evaluated after 13 days; for pest or weed control at 15.625 g/ha: 15.625 g ai/ha; for pest or weed control at 15.625 g/ha / pest or weed control at 250 g/ha: read-out: Pigweed, Redroot damage rating (100=total damage to plant; 0=no damage to plant); for pest or weed control at 62.5 g/ha: 62.5 g ai/ha, 100=total damage to plant, 0=no damage to plant, read-out: plant damage rating, Pigweed, Redroot; for pest or weed control at 250 g/ha: 250 g ai/ha
Method in brief: (§2)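 Visual injury (0–100) at day 13 after a single pre-emergence spray. Rates: 15.625, 62.5, 250 g/ha in acetone–water 50:50 with 0.5% Tween 20. Growth conditions: 24/16° C, 14 h light, 65% humidity.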

[8] = tested on: barnyardgrass (Echinochloa crus-galli); experiment: Test G Pre-Emergence Protocol; details: Echinochloa crus-galli, pre-emergence, 312 h, evaluated after 13 days; for pest or weed control at 15.625 g/ha: 15.625 g ai/ha, read-out: Barnyard grass damage rating (100=total damage to plant; 0=no damage to plant); for pest or weed control at 62.5 g/ha: 62.5 g ai/ha, 100=total damage to plant, 0=no damage to plant, read-out: plant damage rating, Barnyardgrass; for pest or weed control at 250 g/ha: 250 g ai/ha, read-out: Barnyardgrass damage rating (100=total damage to plant; 0=no damage to plant)
Method in brief: as §2

[9] = tested on: ivy-leaved morning glory (Ipomoea hederacea); experiment: Test G Pre-Emergence Protocol; details: Ipomoea, pre-emergence, 312 h, evaluated after 13 days; for pest or weed control at 15.625 g/ha: 15.625 g ai/ha, read-out: Morning-glory, Ivy-leaved damage rating (100=total damage to plant; 0=no damage to plant); for pest or weed control at 62.5 g/ha: 62.5 g ai/ha, 100=total damage to plant, 0=no damage to plant, read-out: plant damage rating, Morningglory, Ivy-leaved; for pest or weed control at 250 g/ha: 250 g ai/ha, read-out: Morningglory, Ivy-leaved damage rating (100=total damage to plant; 0=no damage to plant)
Method in brief: as §2

[10] = tested on: giant foxtail (Setaria faberi); experiment: Test G Pre-Emergence Protocol; details: Setaria faberi, pre-emergence, 312 h, evaluated after 13 days; for pest or weed control at 15.625 g/ha: 15.625 g ai/ha; for pest or weed control at 15.625 g/ha / pest or weed control at 250 g/ha: read-out: Foxtail, Giant damage rating (100=total damage to plant; 0=no damage to plant); for pest or weed control at 62.5 g/ha: 62.5 g ai/ha, 100=total damage to plant, 0=no damage to plant, read-out: plant damage rating, Foxtail, Giant; for pest or weed control at 250 g/ha: 250 g ai/ha
Method in brief: as §2

[11] = tested on: corn (Zea mays); experiment: Test G Pre-Emergence Protocol; details: Zea mays, pre-emergence, 312 h, evaluated after 13 days; for plant injury at 15.625 g/ha: 15.625 g ai/ha; for plant injury at 15.625 g/ha / plant injury at 250 g/ha: read-out: Corn damage rating (100=total damage to plant; 0=no damage to plant); for plant injury at 62.5 g/ha: 62.5 g ai/ha, 100=total damage to plant, 0=no damage to plant, read-out: plant damage rating, Corn; for plant injury at 250 g/ha: 250 g ai/ha
Method in brief: as §2

[12] = tested on: velvetleaf (Abutilon theophrasti); experiment: Test G Pre-Emergence Protocol; details: Abutilon theophrasti, pre-emergence, 312 h, evaluated after 13 days; for pest or weed control at 15.625 g/ha: 15.625 g ai/ha; for pest or weed control at 15.625 g/ha / pest or weed control at 250 g/ha: read-out: Velvetleaf damage rating (100=total damage to plant; 0=no damage to plant); for pest or weed control at 62.5 g/ha: 62.5 g ai/ha, 100=total damage to plant, 0=no damage to plant, read-out: plant damage rating, Velvetleaf; for pest or weed control at 250 g/ha: 250 g ai/ha
Method in brief: as §2

SMILES | pest or weed control at 15.625 g/ha [1] [%] | pest or weed control at 62.5 g/ha [1] [%] | pest or weed control at 250 g/ha [1] [%] | pest or weed control at 15.625 g/ha [2] [%] | pest or weed control at 62.5 g/ha [2] [%] | pest or weed control at 250 g/ha [2] [%] | pest or weed control at 15.625 g/ha [3] [%] | pest or weed control at 62.5 g/ha [3] [%] | pest or weed control at 250 g/ha [3] [%] | pest or weed control at 15.625 g/ha [4] [%] | pest or weed control at 62.5 g/ha [4] [%] | pest or weed control at 250 g/ha [4] [%] | plant injury at 15.625 g/ha [5] [%] | plant injury at 62.5 g/ha [5] [%] | plant injury at 250 g/ha [5] [%] | pest or weed control at 15.625 g/ha [6] [%] | pest or weed control at 62.5 g/ha [6] [%] | pest or weed control at 250 g/ha [6] [%] | pest or weed control at 15.625 g/ha [7] [%] | pest or weed control at 62.5 g/ha [7] [%] | also measured
Cc1nc(C(F)(F)F)ccc1NC(=O)[C@@H]1C(=O)N(C)C[C@H]1c1ccc(C(F)(F)F)cc1 (racemic) [Compound 1566] | 0 | 0 | 0 | 0 | 10 | 20 | 0 | 0 | 0 | 0 | 0 | 0 | 0 | 0 | 0 | 0 | 0 | 0 | 0 | 0 | pest or weed control at 250 g/ha [7]: 0%; pest or weed control at 15.625 g/ha [8]: 0%; pest or weed control at 62.5 g/ha [8]: 0%; pest or weed control at 250 g/ha [8]: 0%; pest or weed control at 15.625 g/ha [9]: 0%; pest or weed control at 62.5 g/ha [9]: 0%; pest or weed control at 250 g/ha [9]: 0%; pest or weed control at 15.625 g/ha [10]: 0%; pest or weed control at 62.5 g/ha [10]: 0%; pest or weed control at 250 g/ha [10]: 0%; plant injury at 15.625 g/ha [11]: 0%; plant injury at 62.5 g/ha [11]: 0%; plant injury at 250 g/ha [11]: 0%; pest or weed control at 15.625 g/ha [12]: 0%; pest or weed control at 62.5 g/ha [12]: 0%; pest or weed control at 250 g/ha [12]: 0%
CN1C[C@@H](c2ccc(C(F)(F)F)cc2)[C@H](C(=O)Nc2cncc(Cl)n2)C1=O (racemic) [Compound 1574] | 0 | 0 | 0 | 0 | 0 | 40 | 0 | 0 | 40 | 0 | 0 | 60 | 0 | 0 | 0 | 0 | 0 | 0 | 0 | 0 | pest or weed control at 250 g/ha [7]: 30%; pest or weed control at 15.625 g/ha [8]: 0%; pest or weed control at 62.5 g/ha [8]: 0%; pest or weed control at 250 g/ha [8]: 60%; pest or weed control at 15.625 g/ha [9]: 0%; pest or weed control at 62.5 g/ha [9]: 0%; pest or weed control at 250 g/ha [9]: 0%; pest or weed control at 15.625 g/ha [10]: 0%; pest or weed control at 62.5 g/ha [10]: 0%; pest or weed control at 250 g/ha [10]: 70%; plant injury at 15.625 g/ha [11]: 0%; plant injury at 62.5 g/ha [11]: 0%; plant injury at 250 g/ha [11]: 0%; pest or weed control at 15.625 g/ha [12]: 0%; pest or weed control at 62.5 g/ha [12]: 0%; pest or weed control at 250 g/ha [12]: 0%
Cc1cnc(NC(=O)[C@@H]2C(=O)N(C)C[C@H]2c2ccc(C(F)(F)F)cc2)nc1 (racemic) [Compound 1575] | 0 | 0 | 0 | 0 | 0 | 0 | 0 | 0 | 0 | 0 | 0 | 0 | 0 | 0 | 0 | 0 | 0 | 0 | 0 | 0 | pest or weed control at 250 g/ha [7]: 0%; pest or weed control at 15.625 g/ha [8]: 0%; pest or weed control at 62.5 g/ha [8]: 0%; pest or weed control at 250 g/ha [8]: 0%; pest or weed control at 15.625 g/ha [9]: 0%; pest or weed control at 62.5 g/ha [9]: 0%; pest or weed control at 250 g/ha [9]: 0%; pest or weed control at 15.625 g/ha [10]: 0%; pest or weed control at 62.5 g/ha [10]: 0%; pest or weed control at 250 g/ha [10]: 0%; plant injury at 15.625 g/ha [11]: 0%; plant injury at 62.5 g/ha [11]: 0%; plant injury at 250 g/ha [11]: 0%; pest or weed control at 15.625 g/ha [12]: 0%; pest or weed control at 62.5 g/ha [12]: 0%; pest or weed control at 250 g/ha [12]: 0%
